10 compounds from PMC12667733 can be followed below.

The data set can be described thus: head-to-tail lactamisation of side-chain-protected linear peptides, PyBOP (2 equiv), DIPEA (3 equiv, added dropwise), overnight at rt under N2; then TFA global deprotection and prep RP-HPLC. The conditions noted are these: the molecule shown is the open-chain precursor, DMF, 1.0 mM, 25.0 °C, 2 steps.

Regarding `CC(C)C[C@H](NC(=O)CN)C(=O)N[C@@H](Cc1cn(C(c2ccccc2)(c2ccccc2)c2ccccc2)cn1)C(=O)N[C@@H](Cc1ccccc1)C(=O)N[C@@H](C)C(=O)N[C@@H](Cc1ccccc1)C(=O)N1CCC[C@H]1C(=O)O` [H-Gly-Leu-His(Trt)-Phe-Ala-Phe-Pro-OH], the ring closure, yield over several steps (21-membered ring) worked out at 56%. Still for that read-out and setting: under `CC(C)C[C@H](NC(=O)CN)C(=O)N[C@@H](COC(C)(C)C)C(=O)N[C@@H](Cc1ccccc1)C(=O)N[C@@H](C)C(=O)N[C@@H](Cc1ccccc1)C(=O)N1CCC[C@H]1C(=O)O` [H-Gly-Leu-Ser(tBu)-Phe-Ala-Phe-Pro-OH] stands 54%. As for `CC(C)[C@H](NC(=O)CN)C(=O)N[C@@H](CCCCNC(=O)OC(C)(C)C)C(=O)N[C@@H](Cc1ccc(OC(C)(C)C)cc1)C(=O)N[C@@H](C)C(=O)O` [H-Gly-Val-Lys(Boc)-Tyr(tBu)-Ala-OH], the ring closure, yield over several steps (15-membered ring) amounted to 68%. On to `Cc1c(C)c(S(=O)(=O)NC(=N)NCCC[C@H](NC(=O)CN)C(=O)N[C@H](C(=O)N[C@@H](CCCCNC(=O)OC(C)(C)C)C(=O)N[C@@H](C)C(=O)O)C(C)C)c(C)c2c1OC(C)(C)C2` [H-Gly-Arg(Pbf)-Val-Lys(Boc)-Ala-OH], for which the ring closure, yield over several steps (15-membered ring) was determined as 63%. `CC(C)C[C@H](NC(=O)CNC(=O)[C@H](Cc1cn(C(c2ccccc2)(c2ccccc2)c2ccccc2)cn1)NC(=O)[C@@H](NC(=O)CNC(=O)[C@@H](N)Cc1ccccc1)[C@@H](C)OC(C)(C)C)C(=O)N1CCC[C@H]1C(=O)N[C@@H](C)C(=O)N1CCC[C@H]1C(=O)O` [H-Phe-Gly-Thr(tBu)-His(Trt)-Gly-Leu-Pro-Ala-Pro-OH]: the ring closure, yield over several steps (27-membered ring) came to 57%. Regarding `Cc1c(C)c(S(=O)(=O)NC(=N)NCCC[C@H](NC(=O)[C@H](Cc2ccc(OC(C)(C)C)cc2)NC(=O)CN)C(=O)N[C@@H](Cc2ccccc2)C(=O)N[C@@H](COC(C)(C)C)C(=O)O)c(C)c2c1OC(C)(C)C2` [H-Gly-Tyr(tBu)-Arg(Pbf)-Phe-Ser(tBu)-OH], the ring closure, yield over several steps (15-membered ring) is 64%. In the case of `C[C@H](N)C(=O)N[C@@H](COC(C)(C)C)C(=O)N[C@@H](Cc1ccc(OC(C)(C)C)cc1)C(=O)N[C@@H](COC(C)(C)C)C(=O)N[C@@H](COC(C)(C)C)C(=O)N[C@@H](CCCCNC(=O)OC(C)(C)C)C(=O)N1CCC[C@H]1C(=O)N[C@@H](Cc1ccccc1)C(=O)N[C@@H](COC(C)(C)C)C(=O)O`, the ring closure, yield over several steps (27-membered ring) came to 62%.

As to `CC(C)[C@H](NC(=O)[C@@H]1CCCN1C(=O)[C@@H](NC(=O)CN)C(C)C)C(=O)N[C@@H](Cc1cn(C(=O)OC(C)(C)C)c2ccccc12)C(=O)N[C@@H](C)C(=O)O` [H-Gly-Val-Pro-Val-Trp(Boc)-Ala-OH], for the setting “18-membered ring”, the ring closure, yield over several steps came to 51%.

Regarding `CC(C)C[C@H](NC(=O)[C@@H]1CCCN1C(=O)[C@@H](NC(=O)[C@H](Cc1ccc(OC(C)(C)C)cc1)NC(=O)CN)C(C)C)C(=O)N[C@@H](Cc1cn(C(=O)OC(C)(C)C)c2ccccc12)C(=O)N1CCC[C@H]1C(=O)O` [H-Gly-Tyr(tBu)-Val-Pro-Leu-Trp(Boc)-Pro-OH], the ring closure, yield over several steps (21-membered ring) was determined as 57%. As for `CC(C)[C@H](NC(=O)CN)C(=O)N[C@@H](C)C(=O)N[C@@H](Cc1cn(C(=O)OC(C)(C)C)c2ccccc12)C(=O)N[C@@H](C)C(=O)O` [H-Gly-Val-Ala-Trp(Boc)-Ala-OH], the ring closure, yield over several steps (15-membered ring) was determined as 48%.
